Reference: US7732481B2, “Prolinylarylacetamides” (Merck Patent Gesellschaft mit beschrankter Haftung, priority 2003, dated 2010)

biological target: FXa (Homo sapiens, UniProt P00742); assay: Inhibition of factor Xa (FXa-IC50); type: biochemical
Source text: The inhibition of factor Xa by the compounds according to the invention and the measurement of the anticoagulant and antithrombotic activity can be determined by conventional in-vitro or in-vivo methods. A suitable method is described, for example, by J. Hauptmann et al. in Thrombosis and Haemostasis 1990, 63, 220-223.
The inhibition of factor Xa can be measured, for example by the method of T. Hara et al. in Thromb. Haemostas. 1994, 71, 314-319.

FXa, sequence (P00742 235-488 limits assumed): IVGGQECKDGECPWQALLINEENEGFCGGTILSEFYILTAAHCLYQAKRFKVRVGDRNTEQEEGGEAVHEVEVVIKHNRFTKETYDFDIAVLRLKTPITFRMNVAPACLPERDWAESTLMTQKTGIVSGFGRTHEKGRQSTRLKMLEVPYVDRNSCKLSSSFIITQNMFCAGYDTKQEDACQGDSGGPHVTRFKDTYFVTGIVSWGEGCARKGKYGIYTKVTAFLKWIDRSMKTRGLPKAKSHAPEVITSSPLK
FXa, sequence (P00742 41-179 limits assumed): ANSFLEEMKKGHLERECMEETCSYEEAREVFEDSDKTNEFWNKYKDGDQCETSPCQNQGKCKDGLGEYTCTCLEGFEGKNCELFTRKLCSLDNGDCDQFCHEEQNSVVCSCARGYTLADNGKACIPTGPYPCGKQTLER

Structure (SMILES) | IC50 [nM]
CN(C(=O)CN1CCOCC1)c1ccc(NC(=O)[C@H]2C[C@@H](O)CN2C(=O)Nc2ccc(Cl)cc2)cc1 [Compound A1-1, 1-N-(4-chlorophenyl)-2-N-{4-[(2-(morpholin-4-yl)ethanoyl)methylamino]phenyl}-(2R,4R)-4-hydroxypyrrolidine-1,2-dicarboxamide] | 54
CN(C(=O)CN1CCC(O)CC1)c1ccc(NC(=O)[C@H]2C[C@@H](O)CN2C(=O)Nc2ccc(Cl)cc2)cc1 [Compound A1-2, 1-N-(4-chlorophenyl)-2-N-{4-[(2-(4-hydroxypiperidin-1-yl)ethanoyl)-methylamino]phenyl}-(2R,4R)-4-hydroxypyrrolidine-1,2-dicarboxamide] | 37
CCNCC(=O)N(C)c1ccc(NC(=O)[C@H]2C[C@@H](O)CN2C(=O)Nc2ccc(Cl)cc2)cc1 [Compound A3, 1-N-(4-Chlorophenyl)-2-N-{4-[(2-ethylaminoethanoyl)methylamino]-phenyl}-(2R,4R)-4-hydroxypyrrolidine-1,2-dicarboxamide] | 17

test system: not given; assay: not given

Structure (SMILES) | melting point [°C]
CN(C)CC(=O)N(C)c1ccc(NC(=O)[C@H]2C[C@@H](O)CN2C(=O)Nc2ccc(Cl)cc2)cc1 [Compound A1, 1-N-(4-Chlorophenyl)-2-N-{4-[(2-dimethylaminoethanoyl)methylamino]-phenyl}-(2R,4R)-4-hydroxypyrrolidine-1,2-dicarboxamide] | 95
CCNCC(=O)N(C)c1ccc(NC(=O)[C@H]2C[C@@H](O)CN2C(=O)Nc2ccc(Cl)cc2)cc1 [Compound A3, 1-N-(4-Chlorophenyl)-2-N-{4-[(2-ethylaminoethanoyl)methylamino]-phenyl}-(2R,4R)-4-hydroxypyrrolidine-1,2-dicarboxamide] | 121
COCC(=O)N(C)c1ccc(NC(=O)[C@H]2C[C@@H](O)CN2C(=O)Nc2ccc(Cl)cc2)cc1 [Compound A4, 1-N-(4-Chlorophenyl)-2-N-{4-[(2-methoxyethanoyl)methylamino]phenyl}-(2R,4R)-4-hydroxypyrrolidine-1,2-dicarboxamide] | 84
